Test results: ChEMBL document CHEMBL5143537, “Quinazoline-based hydroxamic acid derivatives as dual histone methylation and deacetylation inhibitors for potential anticancer agents” (Bioorg Med Chem, 2022)
Active and inactive are the calls of the source. The calls are words filed in the database; no cut-off is given here.

How the values were obtained:
[1] = test system: HepG2; assay: Cell cycle arrest in human HepG2 cells assessed as accumulation at G2/M phase at 5 uM measured after 48 hrs by propidium iodide staining based flow cytometry (reference value: 12.37%); assay type: functional
[2] = target: T1, Histone-lysine N-methyltransferase EHMT1 (Homo sapiens, UniProt Q9H9B1); assay: Inhibition of GLP (unknown origin)
T1 sequence (Q9H9B1 whole entry): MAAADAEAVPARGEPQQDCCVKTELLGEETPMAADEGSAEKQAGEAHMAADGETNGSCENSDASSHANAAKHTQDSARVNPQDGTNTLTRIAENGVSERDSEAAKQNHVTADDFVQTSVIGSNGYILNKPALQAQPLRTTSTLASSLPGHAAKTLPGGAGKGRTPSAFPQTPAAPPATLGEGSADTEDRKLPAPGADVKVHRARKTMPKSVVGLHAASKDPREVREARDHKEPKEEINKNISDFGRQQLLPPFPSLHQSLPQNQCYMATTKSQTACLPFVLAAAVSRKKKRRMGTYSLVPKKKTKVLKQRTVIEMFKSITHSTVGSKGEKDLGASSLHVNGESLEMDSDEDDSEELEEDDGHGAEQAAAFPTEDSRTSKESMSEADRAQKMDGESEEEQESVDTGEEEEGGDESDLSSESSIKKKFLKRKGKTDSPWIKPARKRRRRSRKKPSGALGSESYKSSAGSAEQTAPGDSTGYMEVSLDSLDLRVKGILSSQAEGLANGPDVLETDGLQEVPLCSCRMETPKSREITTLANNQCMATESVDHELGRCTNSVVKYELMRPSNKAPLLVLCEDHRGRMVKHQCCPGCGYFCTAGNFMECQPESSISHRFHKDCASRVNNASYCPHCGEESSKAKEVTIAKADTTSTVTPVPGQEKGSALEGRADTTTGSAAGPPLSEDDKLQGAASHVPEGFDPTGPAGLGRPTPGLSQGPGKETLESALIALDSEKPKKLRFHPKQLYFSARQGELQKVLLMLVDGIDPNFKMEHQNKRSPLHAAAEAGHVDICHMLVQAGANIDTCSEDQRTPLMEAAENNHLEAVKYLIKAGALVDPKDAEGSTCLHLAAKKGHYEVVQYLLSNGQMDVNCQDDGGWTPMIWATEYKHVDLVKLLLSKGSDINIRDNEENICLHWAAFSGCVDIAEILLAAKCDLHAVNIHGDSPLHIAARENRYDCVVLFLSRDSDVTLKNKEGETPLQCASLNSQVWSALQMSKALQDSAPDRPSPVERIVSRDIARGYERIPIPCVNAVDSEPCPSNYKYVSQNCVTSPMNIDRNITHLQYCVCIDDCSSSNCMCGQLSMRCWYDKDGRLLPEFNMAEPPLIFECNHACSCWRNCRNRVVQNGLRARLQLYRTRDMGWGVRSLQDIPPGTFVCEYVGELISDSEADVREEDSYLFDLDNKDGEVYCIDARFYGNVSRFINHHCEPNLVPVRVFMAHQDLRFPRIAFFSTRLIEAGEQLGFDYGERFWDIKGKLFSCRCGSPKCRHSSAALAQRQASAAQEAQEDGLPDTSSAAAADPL

[3] = target: Histone deacetylase (Homo sapiens) (UniProt Q13547+O15379+Q9UBN7+Q92769+Q9UQL6+Q8WUI4+Q9BY41+Q96DB2+P56524+Q9UKV0+Q969S8); assay: Inhibition of HDAC in human HepG2 cells assessed as increase in Ac-H3K9 expression at 1.25 to 20 uM measured after 24 hrs by Western blot analysis; assay type: cell-based; details: dose 1.25-20 µM
[4] = test system: HepG2; assay: Cell cycle arrest in human HepG2 cells assessed as accumulation at S phase at 2.5 uM measured after 48 hrs by propidium iodide staining based flow cytometry (reference value: 32.39%); assay type: functional
[5] = test system: K562; assay: Antiproliferative activity against human K562 cells measured after 72 hrs by MTT assay; assay type: functional, cell-based; details: K562, 72 h
[6] = test system: HepG2; assay: Cell cycle arrest in human HepG2 cells assessed as accumulation at S phase at 10 uM measured after 48 hrs by propidium iodide staining based flow cytometry (reference value: 32.39%); assay type: functional
[7] = Half life in rat liver microsomes at 1 uM by LC-MS/MS analysis; assay type: ADME, Microsome
[8] = test system: HT-29; assay: Antiproliferative activity against human HT-29 cells measured after 72 hrs by MTT assay; assay type: functional, cell-based; details: HT-29, 72 h
[9] = Metabolic stability in rat liver microsomes assessed as parent compound remaining at 1 uM measured after 30 mins by LC-MS/MS analysis; assay type: ADME, Microsome; details: read-out: Stability
[10] = test system: HepG2; assay: Induction of apoptosis in human HepG2 cells assessed as late apoptotic cells at 2.5 uM measured after 48 hrs by Annexin V-FITC/propidium iodide staining based flow cytometry (reference value: 4.55%); assay type: functional
[11] = test system: HepG2; assay: Cell cycle arrest in human HepG2 cells assessed as accumulation at G0/G1 phase at 2.5 uM measured after 48 hrs by propidium iodide staining based flow cytometry (reference value: 55.24%); assay type: functional
[12] = test system: HepG2; assay: Induction of apoptosis in human HepG2 cells assessed as necrotic cells at 1.25 uM measured after 48 hrs by Annexin V-FITC/propidium iodide staining based flow cytometry (reference value: 0%); assay type: functional
[13] = Effect on H3 expression in human HepG2 cells at 1.25 to 25 uM measured after 24 hrs by Western blot analysis; assay type: toxicity, cell-based; details: hepg2, 24 h, dose 1.25-25 µM
[14] = Cytotoxicity against human HL7702 cells measured after 72 hrs by MTT assay; details: HL7702 (L02) cells
[15] = test system: HepG2; assay: Induction of apoptosis in human HepG2 cells assessed as early apoptotic cells at 1.25 uM measured after 48 hrs by Annexin V-FITC/propidium iodide staining based flow cytometry (reference value: 6.87%); assay type: functional
[16] = test system: HepG2; assay: Induction of apoptosis in human HepG2 cells assessed as late apoptotic cells at 10 uM measured after 48 hrs by Annexin V-FITC/propidium iodide staining based flow cytometry (reference value: 4.55%); assay type: functional
[17] = test system: HepG2; assay: Induction of apoptosis in human HepG2 cells assessed as viable cells at 2.5 uM measured after 48 hrs by Annexin V-FITC/propidium iodide staining based flow cytometry (reference value: 88.58%); assay type: functional; details: read-out: Activity
[18] = Metabolic stability in rat liver microsomes assessed as parent compound remaining at 1 uM measured after 15 mins by LC-MS/MS analysis; assay type: ADME, Microsome; details: read-out: Stability
[19] = test system: HepG2; assay: Induction of apoptosis in human HepG2 cells assessed as early apoptotic cells at 2.5 uM measured after 48 hrs by Annexin V-FITC/propidium iodide staining based flow cytometry (reference value: 6.87%); assay type: functional
[20] = test system: HepG2; assay: Cell cycle arrest in human HepG2 cells assessed as accumulation at G0/G1 phase at 5 uM measured after 48 hrs by propidium iodide staining based flow cytometry (reference value: 55.24%); assay type: functional
[21] = Metabolic stability in rat liver microsomes assessed as parent compound remaining at 1 uM measured after 45 mins by LC-MS/MS analysis; assay type: ADME, Microsome; details: read-out: Stability
[22] = test system: HepG2; assay: Antimigratory activity against human HepG2 cells measured after 24 hrs by wound healing assay; assay type: functional, cell-based; details: dose 1.5-5 µM, DDE = dose-dependent effect

## COc1cc2nc(N3CCN(CCCCCC(=O)NO)CC3)nc(NC3CCN(Cc4ccccc4)CC3)c2cc1OC
[1]
  Activity: 13.12%
[2]
  IC50: 0.0013 µM
[3]
  inhibition: Active
[4]
  Activity: 28.84%
[5]
  IC50: 2.6 µM
[6]
  Activity: 24.67%
[7]
  half-life at 1 µM: 16 min
[8]
  IC50: 6.99 µM
[9]
  remaining at 0.5 h, 1 µM: 26.8%
[10]
  Activity: 2.27%
[11]
  Activity: 57.88%
[12]
  Activity: 0%
[13]
  Activity: Non-Toxic
[14]
  IC50 at 72 h: 39.8 µM
[15]
  Activity: 8.83%
[16]
  Activity: 6.17%
[17]
  viability at 2.5 µM: 87.5%
[18]
  remaining at 0.25 h, 1 µM: 50.2%
[19]
  Activity: 10.22%
[20]
  Activity: 58.07%
[21]
  remaining at 0.75 h, 1 µM: 14.2%
[22]
  Activity: Dde
